Laboratory results reported in ChEMBL document CHEMBL1201862, “PubChem BioAssay data set” (2004).
Calls of active or inactive are those of the source.

Assays:
[1] = test system: Streptococcus; assay: GAS UMAA2166 growth inhibition – luminescence, BacTiterGlo, counter-screen for streptokinase expression inhibitor project, dose response (AID 1915); type: functional, organism-based;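 also: potency for reduction of bacterial viability or growth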
[2] = molecular target: T1, Beta-galactosidase (Escherichia coli, UniProt Q8VNN2); assay: PubChem AID 485352; type: functional
[3] = molecular target: T2, Kappa-type opioid receptor (Homo sapiens, UniProt P41145); type: functional
[4] = NIH3T3 cell viability loss – ATP luminescence, mouse fibroblasts, counter-screen, dose response (AID 2010); type: functional, cell-based;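 also: cells exposed to compound for about 90 hours before reading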
[5] = molecular target: Nonstructural protein 1 (Influenza A virus, UniProt Q194T2); type: functional, Influenza A virus (A/California/07/2009(H1N1))
[6] = molecular target: T3, Heat shock factor protein 1 (Mus musculus, UniProt P38532); assay: enhancement of HSF1-driven luciferase signal – cell-based, NIH3T3, luminescence, dose retest, confirmation (AID 435004); type: functional;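 also: stress induced by proteasome inhibitor MG132 added 30 min after compound; luciferase reporter driven by HSF1 response element in NIH3T3 cells; actives raise luminescence as potentiators of the MG132 stress response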
T3 sequence (P38532 whole entry): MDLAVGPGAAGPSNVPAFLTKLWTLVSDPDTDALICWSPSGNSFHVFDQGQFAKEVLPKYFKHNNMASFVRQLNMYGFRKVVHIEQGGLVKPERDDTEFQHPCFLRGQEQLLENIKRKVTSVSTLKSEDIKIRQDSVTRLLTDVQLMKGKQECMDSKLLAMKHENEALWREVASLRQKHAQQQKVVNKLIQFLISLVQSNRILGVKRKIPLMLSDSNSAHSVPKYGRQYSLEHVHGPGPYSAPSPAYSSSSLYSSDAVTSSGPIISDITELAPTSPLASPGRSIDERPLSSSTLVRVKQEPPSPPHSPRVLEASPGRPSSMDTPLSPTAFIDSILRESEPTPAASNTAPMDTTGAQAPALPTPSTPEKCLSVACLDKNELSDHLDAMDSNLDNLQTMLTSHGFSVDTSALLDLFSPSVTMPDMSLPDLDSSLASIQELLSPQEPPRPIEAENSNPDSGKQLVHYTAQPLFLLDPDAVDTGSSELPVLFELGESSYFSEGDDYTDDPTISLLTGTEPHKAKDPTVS

[7] = molecular target: T4, Delta-type opioid receptor (Homo sapiens, UniProt P41143); assay: HTS Image-Based Screen for Antagonists of the DOR Receptor. [Related pubchem assays (depositor defined):AID1777, AID1785, AID1786, AID2133]; type: functional
[8] = molecular target: T4, Delta-type opioid receptor; assay: HTS Image-Based Screen for Agonists of the DOR Receptor. [Related pubchem assays (depositor defined):AID1777, AID1786, AID2133]; type: functional
[9] = molecular target: Mu-type opioid receptor (Homo sapiens, UniProt P35372); assay: HTS Image-Based Screen for Agonists of the MOR Receptor. [Related pubchem assays (depositor defined):AID1777, AID1785, AID1786, AID2133]; type: functional;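 also: imaging of beta-arrestin GFP recruitment into spots after receptor activation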
[10] = molecular target: E3 ubiquitin-protein ligase Mdm2 (Homo sapiens, UniProt Q00987); assay: MDM2-luc reporter signal enhancers, multi-concentration potency testing, MDM2 ubiquitin-protein ligase inhibitor program, whole-cell format, luminescence detection, 384-well microplate (AID 1394); type: functional;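 also: MDM2 E3 inhibitors raise luminescence so EC50 is for signal enhancement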
[11] = bead-based luminescence quenchers, dual-tagged ARNT – biochemical, AlphaScreen, cherry-pick, artefact control for ARNT-TACC3 interaction inhibitor project, dose response (AID 651705); type: functional;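 also: AlphaScreen bead proximity signal that flags compounds interfering with the detection technology; potency reflects signal decrease which marks the compound as an assay artifact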
[12] = Trypanosoma cruzi growth suppression in host cells – NIH3T3 host cells, beta-gal luminescence, confirmation (AID 2044); type: functional, cell-based;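 also: intracellular parasites grown in NIH/3T3 mouse fibroblasts as host cells; luminescent beta-galactosidase reporter signal from transgenic T. cruzi replicating inside host cells; inhibitors lower the luminescence signal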
[13] = molecular target: T1, Beta-galactosidase; type: functional
[14] = molecular target: T5, Type-1 angiotensin II receptor (Homo sapiens, UniProt P30556); assay: antagonism of angiotensin II type 1 receptor – cell-based, uHTS hits, selectivity assay for APJ receptor antagonist project, dose response (AID 463214); type: functional;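 also: antagonist potency against angiotensin II stimulated AT1 response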
T5 sequence (P30556 whole entry): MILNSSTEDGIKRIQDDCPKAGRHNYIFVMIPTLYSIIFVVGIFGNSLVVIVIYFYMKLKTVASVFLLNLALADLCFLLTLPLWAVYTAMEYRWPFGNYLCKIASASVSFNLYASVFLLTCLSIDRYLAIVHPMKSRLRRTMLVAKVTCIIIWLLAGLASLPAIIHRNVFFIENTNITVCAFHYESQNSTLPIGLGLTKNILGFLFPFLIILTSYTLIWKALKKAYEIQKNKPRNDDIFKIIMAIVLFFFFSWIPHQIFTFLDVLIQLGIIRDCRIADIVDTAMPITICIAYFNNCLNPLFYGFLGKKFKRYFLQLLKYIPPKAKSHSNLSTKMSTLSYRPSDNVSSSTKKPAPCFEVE

[15] = molecular target: T6, Ubiquitin-conjugating enzyme E2 N (Homo sapiens, UniProt P61088); type: functional;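 also: Dose-response confirmation in a TR-FRET assay detecting UBC13-driven polyubiquitin chain formation, inhibition measured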
T6 sequence (P61088 whole entry): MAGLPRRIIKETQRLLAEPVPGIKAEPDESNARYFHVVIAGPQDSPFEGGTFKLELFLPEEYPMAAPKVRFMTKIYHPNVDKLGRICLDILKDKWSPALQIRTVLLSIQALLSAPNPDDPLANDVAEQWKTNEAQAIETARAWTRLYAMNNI

[16] = test system: Streptococcus sp. 'group A'; assay: Streptococcus pyogenes SK(-)GAS viability under kanamycin – luminescence, BacTiterGlo, confirmation, counter-screen for streptokinase expression inhibitor project, dose response (AID 1900); type: functional, organism-based
[17] = molecular target: T2, Kappa-type opioid receptor; type: functional; remark: listed apart in the source
[18] = Luminescence Cell-Based Dose Confirmation HTS to Identify Inhibitors of Polyadenylation.; type: functional
[19] = cytotoxicity toward HCT116 cells – cell-based, CellTiter-Glo luminescence, IC50, dose response (AID 1117332); type: functional; conditions: HCT-116
[20] = molecular target: Intestinal-type alkaline phosphatase (Homo sapiens, UniProt P09923); assay: inhibition of human intestinal alkaline phosphatase – biochemical, dose response (AID 488876); type: functional
[21] = CellTiter-Glo luminescence survival assay, SW480 colon tumor line, concentration-response curve, half-maximal inhibitory concentration (AID 1117338); type: functional
[22] = SNU-C1 cell viability reduction, dose response, CellTiter-Glo luminescence (AID 1117323); type: functional, cell-based
[23] = molecular target: T7, Alkaline phosphatase, tissue-nonspecific isozyme (Homo sapiens, UniProt P05186); assay: TNAP enzyme inhibition by screening hits, dose response, selectivity assay for mouse IAP inhibitor project, biochemical, human TNAP, uHTS hits (AID 488906); type: functional
T7 sequence (P05186 whole entry): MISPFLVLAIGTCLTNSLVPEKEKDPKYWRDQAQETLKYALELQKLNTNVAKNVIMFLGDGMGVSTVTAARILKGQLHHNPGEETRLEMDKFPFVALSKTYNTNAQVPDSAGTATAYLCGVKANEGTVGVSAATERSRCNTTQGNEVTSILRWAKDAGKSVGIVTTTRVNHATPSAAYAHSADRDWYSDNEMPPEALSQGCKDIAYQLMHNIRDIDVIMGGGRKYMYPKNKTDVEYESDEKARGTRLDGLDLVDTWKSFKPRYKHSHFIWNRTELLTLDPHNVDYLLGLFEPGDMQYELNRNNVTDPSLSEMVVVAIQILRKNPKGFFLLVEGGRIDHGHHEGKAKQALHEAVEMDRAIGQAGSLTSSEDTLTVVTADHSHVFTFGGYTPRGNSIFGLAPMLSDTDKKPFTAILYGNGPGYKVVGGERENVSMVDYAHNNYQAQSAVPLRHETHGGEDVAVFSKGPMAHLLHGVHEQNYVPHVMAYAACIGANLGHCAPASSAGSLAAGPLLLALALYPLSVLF

[24] = molecular target: T8, Apoptotic protease-activating factor 1 (Homo sapiens, UniProt O14727); type: functional
T8 sequence (O14727 whole entry): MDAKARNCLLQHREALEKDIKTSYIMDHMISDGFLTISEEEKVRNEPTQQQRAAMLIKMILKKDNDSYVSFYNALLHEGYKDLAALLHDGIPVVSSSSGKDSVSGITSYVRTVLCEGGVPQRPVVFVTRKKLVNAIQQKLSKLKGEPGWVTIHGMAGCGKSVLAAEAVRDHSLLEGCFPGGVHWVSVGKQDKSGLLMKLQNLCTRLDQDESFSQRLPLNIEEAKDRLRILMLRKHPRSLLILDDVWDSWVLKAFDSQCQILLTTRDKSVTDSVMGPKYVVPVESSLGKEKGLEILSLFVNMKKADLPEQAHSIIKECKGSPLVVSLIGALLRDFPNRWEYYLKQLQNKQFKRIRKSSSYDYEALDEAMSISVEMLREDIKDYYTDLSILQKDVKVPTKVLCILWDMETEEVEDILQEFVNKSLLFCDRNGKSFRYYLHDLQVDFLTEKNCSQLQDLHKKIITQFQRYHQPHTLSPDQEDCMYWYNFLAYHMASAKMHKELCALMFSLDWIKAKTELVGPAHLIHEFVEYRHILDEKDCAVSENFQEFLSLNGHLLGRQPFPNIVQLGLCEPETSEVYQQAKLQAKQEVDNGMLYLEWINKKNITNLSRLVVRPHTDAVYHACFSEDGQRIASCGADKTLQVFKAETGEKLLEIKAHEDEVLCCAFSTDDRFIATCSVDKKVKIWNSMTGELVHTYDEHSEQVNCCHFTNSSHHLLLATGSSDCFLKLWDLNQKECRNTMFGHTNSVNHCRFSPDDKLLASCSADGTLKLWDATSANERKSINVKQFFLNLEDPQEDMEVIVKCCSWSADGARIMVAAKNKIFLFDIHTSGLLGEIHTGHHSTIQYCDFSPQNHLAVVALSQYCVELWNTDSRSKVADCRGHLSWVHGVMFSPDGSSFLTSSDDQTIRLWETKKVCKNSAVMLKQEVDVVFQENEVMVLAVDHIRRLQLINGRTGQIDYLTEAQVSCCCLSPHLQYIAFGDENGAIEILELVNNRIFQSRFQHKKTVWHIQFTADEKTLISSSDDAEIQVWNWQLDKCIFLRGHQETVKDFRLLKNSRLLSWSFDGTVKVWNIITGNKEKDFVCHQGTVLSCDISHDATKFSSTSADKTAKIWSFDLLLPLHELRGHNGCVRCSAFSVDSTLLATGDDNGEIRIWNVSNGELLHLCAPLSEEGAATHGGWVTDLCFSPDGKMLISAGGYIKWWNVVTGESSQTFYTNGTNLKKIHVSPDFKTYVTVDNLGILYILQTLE

[25] = Reduced DLD-1 viability, concentration-response, CellTiter-Glo luminescence (AID 1117352); type: functional
[26] = HCT116 cell viability decrease, GSK3B pretreatment – CellTiter-Glo, IC50, dose response (AID 1117339); type: functional; conditions: HCT-116
[27] = rise of 2N DNA cells, HeLa – IC50, dose response (AID 1117349); type: functional, cell-based
[28] = molecular target: Intestinal-type alkaline phosphatase (Mus musculus, UniProt P24822); assay: PubChem AID 488785; type: functional
[29] = RKO cell viability reduction, dose response, CellTiter-Glo luminescence (AID 1117322); type: functional
[30] = cytotoxicity toward Colo320 cells – cell-based, CellTiter-Glo luminescence, IC50, dose response (AID 1117334); type: functional; conditions: COLO 320
[31] = Counterscreen for AddAB inhibitors: absorbance-based bacterial cell-based high throughput dose response assay for inhibitors of bacterial viability. [Related pubchem assays (depositor defined):AID435030, AID449728, AID449731, AID488942, AID488955, AID488956]; type: functional
[32] = cytotoxicity toward HT-29 cells – cell-based, CellTiter-Glo luminescence, IC50, dose response (AID 1117330); type: functional
[33] = rise of 4N DNA cells, HeLa – IC50, dose response (AID 1117351); type: functional, cell-based
[34] = molecular target: FAD-linked sulfhydryl oxidase ALR (Homo sapiens, UniProt P55789); assay: ALR-catalysed DTT oxidation blockers – biochemical, H2O2 detection, luminescence, cherry-pick, dose response (AID 493248)
[35] = molecular target: Exodeoxyribonuclease V (Escherichia coli (strain K12), UniProt P04993+P07648+P08394); assay: RecBCD inhibition via phage-restricted bacterial growth – absorbance, V66 E. coli, mutant T4 phage, counter-screen for AddAB inhibitor project, dose response (AID 492957); type: functional, cell-based, Escherichia coli str. K-12 substr. MG1655

T1 sequence (Q8VNN2 whole entry): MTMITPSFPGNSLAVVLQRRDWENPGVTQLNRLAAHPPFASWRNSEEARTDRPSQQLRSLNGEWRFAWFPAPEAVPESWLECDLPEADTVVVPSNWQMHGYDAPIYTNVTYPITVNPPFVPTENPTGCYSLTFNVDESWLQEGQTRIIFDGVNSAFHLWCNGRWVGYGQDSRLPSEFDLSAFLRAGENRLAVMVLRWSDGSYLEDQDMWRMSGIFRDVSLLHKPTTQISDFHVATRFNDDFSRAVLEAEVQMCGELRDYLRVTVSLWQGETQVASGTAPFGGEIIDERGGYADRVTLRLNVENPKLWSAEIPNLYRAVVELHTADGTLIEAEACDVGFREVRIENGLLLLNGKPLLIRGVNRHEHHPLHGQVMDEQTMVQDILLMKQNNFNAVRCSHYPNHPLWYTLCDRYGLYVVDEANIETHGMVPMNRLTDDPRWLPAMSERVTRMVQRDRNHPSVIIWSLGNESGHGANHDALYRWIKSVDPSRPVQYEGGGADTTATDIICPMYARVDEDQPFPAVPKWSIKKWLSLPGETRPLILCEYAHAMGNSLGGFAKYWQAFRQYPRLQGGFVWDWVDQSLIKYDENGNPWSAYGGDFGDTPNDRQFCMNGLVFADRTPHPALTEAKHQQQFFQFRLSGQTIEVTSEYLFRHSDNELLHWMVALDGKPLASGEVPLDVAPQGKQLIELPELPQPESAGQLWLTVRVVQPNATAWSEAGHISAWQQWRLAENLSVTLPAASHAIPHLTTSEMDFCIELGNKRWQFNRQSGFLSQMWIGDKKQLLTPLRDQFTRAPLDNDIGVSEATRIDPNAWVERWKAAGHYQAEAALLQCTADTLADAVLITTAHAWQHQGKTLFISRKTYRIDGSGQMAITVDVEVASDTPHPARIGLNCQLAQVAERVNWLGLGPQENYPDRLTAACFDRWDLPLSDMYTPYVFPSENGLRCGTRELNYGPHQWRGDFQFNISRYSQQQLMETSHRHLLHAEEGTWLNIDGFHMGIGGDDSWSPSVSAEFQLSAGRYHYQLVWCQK
T4 sequence (P41143 whole entry): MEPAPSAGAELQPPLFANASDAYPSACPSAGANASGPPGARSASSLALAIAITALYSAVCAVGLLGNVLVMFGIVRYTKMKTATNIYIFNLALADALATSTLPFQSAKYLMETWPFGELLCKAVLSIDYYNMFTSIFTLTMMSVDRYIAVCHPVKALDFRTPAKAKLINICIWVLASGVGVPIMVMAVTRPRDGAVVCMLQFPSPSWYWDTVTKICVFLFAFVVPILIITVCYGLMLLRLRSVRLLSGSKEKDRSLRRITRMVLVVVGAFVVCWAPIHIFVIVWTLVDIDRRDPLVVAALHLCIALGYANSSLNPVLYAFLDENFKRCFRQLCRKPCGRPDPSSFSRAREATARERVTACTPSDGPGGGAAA
Nonstructural protein 1, sequence (Q194T2 whole entry): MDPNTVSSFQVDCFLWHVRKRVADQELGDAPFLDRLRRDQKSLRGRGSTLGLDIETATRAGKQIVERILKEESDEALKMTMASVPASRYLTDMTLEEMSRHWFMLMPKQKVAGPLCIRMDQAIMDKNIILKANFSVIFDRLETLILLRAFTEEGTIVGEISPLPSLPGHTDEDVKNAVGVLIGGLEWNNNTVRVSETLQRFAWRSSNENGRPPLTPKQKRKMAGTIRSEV
T2 sequence (P41145 whole entry): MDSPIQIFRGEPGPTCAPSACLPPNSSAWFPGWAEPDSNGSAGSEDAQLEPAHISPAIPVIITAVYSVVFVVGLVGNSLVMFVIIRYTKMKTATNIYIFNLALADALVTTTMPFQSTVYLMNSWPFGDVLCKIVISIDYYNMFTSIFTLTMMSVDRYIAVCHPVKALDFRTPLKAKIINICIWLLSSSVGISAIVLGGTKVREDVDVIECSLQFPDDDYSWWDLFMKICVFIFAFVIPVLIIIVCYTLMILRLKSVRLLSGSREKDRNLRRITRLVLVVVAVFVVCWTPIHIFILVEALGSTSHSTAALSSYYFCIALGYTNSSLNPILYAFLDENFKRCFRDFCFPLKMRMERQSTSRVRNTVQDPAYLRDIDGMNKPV
Mu-type opioid receptor, sequence (P35372 whole entry): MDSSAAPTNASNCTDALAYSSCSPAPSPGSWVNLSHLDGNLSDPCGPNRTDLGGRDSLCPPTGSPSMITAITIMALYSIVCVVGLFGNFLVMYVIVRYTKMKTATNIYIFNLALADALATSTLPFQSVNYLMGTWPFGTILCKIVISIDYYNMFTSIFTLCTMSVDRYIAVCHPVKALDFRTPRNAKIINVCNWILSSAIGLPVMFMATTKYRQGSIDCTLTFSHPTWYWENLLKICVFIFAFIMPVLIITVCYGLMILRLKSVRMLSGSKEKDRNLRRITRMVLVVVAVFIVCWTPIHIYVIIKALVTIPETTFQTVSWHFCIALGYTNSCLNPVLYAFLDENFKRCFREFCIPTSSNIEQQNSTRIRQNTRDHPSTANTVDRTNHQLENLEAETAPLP
E3 ubiquitin-protein ligase Mdm2, sequence (Q00987 whole entry): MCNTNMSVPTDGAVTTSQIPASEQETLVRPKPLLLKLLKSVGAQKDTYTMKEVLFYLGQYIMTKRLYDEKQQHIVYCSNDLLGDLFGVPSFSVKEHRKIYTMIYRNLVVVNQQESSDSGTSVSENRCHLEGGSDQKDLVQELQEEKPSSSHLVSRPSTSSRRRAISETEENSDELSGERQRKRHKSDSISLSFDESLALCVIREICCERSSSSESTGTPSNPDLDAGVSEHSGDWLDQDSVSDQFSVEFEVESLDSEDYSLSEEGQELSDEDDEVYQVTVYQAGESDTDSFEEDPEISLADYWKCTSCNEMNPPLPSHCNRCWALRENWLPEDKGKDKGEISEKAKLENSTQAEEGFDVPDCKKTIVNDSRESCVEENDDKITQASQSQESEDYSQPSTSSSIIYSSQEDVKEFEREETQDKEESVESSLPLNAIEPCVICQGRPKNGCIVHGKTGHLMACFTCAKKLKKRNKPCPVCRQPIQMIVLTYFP
FAD-linked sulfhydryl oxidase ALR, sequence (P55789 whole entry): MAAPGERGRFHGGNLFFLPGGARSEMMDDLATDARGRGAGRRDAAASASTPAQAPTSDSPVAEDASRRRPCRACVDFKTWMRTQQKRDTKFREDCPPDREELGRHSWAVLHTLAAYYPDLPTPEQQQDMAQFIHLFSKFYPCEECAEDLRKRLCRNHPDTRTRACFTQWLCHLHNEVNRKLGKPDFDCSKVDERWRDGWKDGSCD
Intestinal-type alkaline phosphatase (Homo sapiens, UniProt P09923), sequence (P09923 whole entry): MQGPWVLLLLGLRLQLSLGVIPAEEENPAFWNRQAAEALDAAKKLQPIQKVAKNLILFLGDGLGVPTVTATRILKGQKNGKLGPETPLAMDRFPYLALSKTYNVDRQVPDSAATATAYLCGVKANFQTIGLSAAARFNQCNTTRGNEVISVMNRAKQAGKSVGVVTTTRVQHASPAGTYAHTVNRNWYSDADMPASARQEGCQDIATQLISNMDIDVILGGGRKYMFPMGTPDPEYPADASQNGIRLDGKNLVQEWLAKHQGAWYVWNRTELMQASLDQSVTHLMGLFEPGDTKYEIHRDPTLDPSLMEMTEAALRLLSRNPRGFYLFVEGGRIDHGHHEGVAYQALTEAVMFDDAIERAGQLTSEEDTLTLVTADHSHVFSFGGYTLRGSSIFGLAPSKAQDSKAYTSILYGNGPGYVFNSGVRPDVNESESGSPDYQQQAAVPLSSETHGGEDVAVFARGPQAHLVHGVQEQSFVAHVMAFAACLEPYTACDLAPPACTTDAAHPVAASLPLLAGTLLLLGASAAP
Intestinal-type alkaline phosphatase (Mus musculus, UniProt P24822), sequence (P24822 whole entry): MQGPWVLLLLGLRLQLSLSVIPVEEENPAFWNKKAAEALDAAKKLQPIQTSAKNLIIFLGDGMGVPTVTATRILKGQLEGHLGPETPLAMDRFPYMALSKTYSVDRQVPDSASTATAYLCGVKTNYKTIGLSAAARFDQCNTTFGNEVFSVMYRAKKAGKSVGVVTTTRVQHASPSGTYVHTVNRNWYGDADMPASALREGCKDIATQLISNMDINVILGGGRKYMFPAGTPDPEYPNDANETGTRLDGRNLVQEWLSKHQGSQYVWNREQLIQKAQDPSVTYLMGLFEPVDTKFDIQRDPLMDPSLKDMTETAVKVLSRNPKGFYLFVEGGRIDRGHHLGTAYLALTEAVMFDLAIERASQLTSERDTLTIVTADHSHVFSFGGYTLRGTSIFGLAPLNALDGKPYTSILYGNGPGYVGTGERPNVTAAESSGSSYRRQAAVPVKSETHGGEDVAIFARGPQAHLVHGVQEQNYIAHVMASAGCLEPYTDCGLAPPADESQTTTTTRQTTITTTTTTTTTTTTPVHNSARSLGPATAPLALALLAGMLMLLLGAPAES

In the case of `COCc1cc(O)nc(Nc2nc3ccc(C)cc3o2)n1`, the EC50 [1] is reported as 7.89 µM (active), the EC50 [2] is reported as > 40 µM (inactive) and the IC50 [3] is reported as > 32 µM. For the same compound, the EC50 [4] was 4.89 µM (active), the IC50 [5] was 16.1 µM (active) and the EC50 [6] was 11.1 µM (active). The IC50 [7] was > 32 µM (inactive), the EC50 [8] was > 32 µM (inactive) and the EC50 [9] was > 32 µM (inactive). For the same compound, the EC50 [10] was 0.56 µM (active), the AC50 [11] was 103 µM (active) and the EC50 [12] was 1.87 µM (active). For the same compound, the EC50 [13] was > 31.5 µM (inactive), the IC50 [14] was 6.83 µM (active) and the IC50 [15] was > 20 µM (inactive). The EC50 [16] was 2.11 µM (active) and the IC50 [17] was 7.12 µM (active).

In the case of `CCN1/C(=C/C=C/c2sc3ccccc3[n+]2CC)Sc2ccccc21`, the EC50 [18] is reported as 11.1 µM (active), the EC50 [1] is reported as 3 µM (active) and the IC50 [19] is reported as 0.00957 µM (active). The IC50 [20] was > 100 µM (inactive), the IC50 [21] was 0.172 µM (active) and the IC50 [22] was 0.0172 µM (active). The IC50 [23] was 74.8 µM (active), the IC50 [5] was 9.73 µM (active) and the IC50 [24] was 20.8 µM (active). The IC50 [25] was 0.0148 µM (active), the IC50 [26] was 0.00875 µM (active) and the IC50 [27] was 8.51 µM (inactive). For the same compound, the IC50 [28] was 1.55 µM (active), the IC50 [29] was 0.00898 µM (active) and the IC50 [30] was 0.562 µM (active). The IC50 [31] was 99.5 µM (inactive), the IC50 [32] was 0.00838 µM (active) and the IC50 [33] was > 10 µM (inactive). For the same compound, the AC50 [34] was 0.522 µM (active), the EC50 [16] was 2.54 µM (active) and the IC50 [35] was 80.9 µM (inactive).
